In patent US20160089321A1, “ANTIPERSPIRANT COMPOSITIONS” (Johnson & Johnson Consumer Inc., priority 2014, published 2016):
One block for each molecule: values may come before it.

What was measured:
[1] = Turbidity measurement caused by gel polymerization in alkaline pH (turbidimeter); assay type: physicochemical; conditions: for Potential to gel polymerize in an alkaline environment: summary of Table 1
Description: In this test, a Hach model 2100 lab turbidimeter was used. One solution containing sodium hydroxide at pH 8.5 was prepared and each compound was tested at 10% concentration after mixing. […] The insoluble gel formed should act as an obstruction at the orifice of the sweat gland, reducing the flow of axillary perspiration.

[2] = molecular target: T1, Bovine serum albumin (BSA) (Bos taurus, UniProt P02769); experiment: In vitro active-protein interaction: BSA precipitation by the Bradford method; assay type: biochemical; conditions: for Precipitation (BSA): screening test, 10% active solution; for Precipitation (BSA) / % BSA Precipitation: buffer pH 4.9; for % BSA Precipitation: dose-response assay
T1 construct: add 4 g of albumin (available from Sigma-Aldrich) from bovine serum (BSA) to 2000 mL of buffer solution; purchased Sigma-Aldrich A7906; host or cells: bovine serum (natural source)
T1 sequence (P02769 25-607): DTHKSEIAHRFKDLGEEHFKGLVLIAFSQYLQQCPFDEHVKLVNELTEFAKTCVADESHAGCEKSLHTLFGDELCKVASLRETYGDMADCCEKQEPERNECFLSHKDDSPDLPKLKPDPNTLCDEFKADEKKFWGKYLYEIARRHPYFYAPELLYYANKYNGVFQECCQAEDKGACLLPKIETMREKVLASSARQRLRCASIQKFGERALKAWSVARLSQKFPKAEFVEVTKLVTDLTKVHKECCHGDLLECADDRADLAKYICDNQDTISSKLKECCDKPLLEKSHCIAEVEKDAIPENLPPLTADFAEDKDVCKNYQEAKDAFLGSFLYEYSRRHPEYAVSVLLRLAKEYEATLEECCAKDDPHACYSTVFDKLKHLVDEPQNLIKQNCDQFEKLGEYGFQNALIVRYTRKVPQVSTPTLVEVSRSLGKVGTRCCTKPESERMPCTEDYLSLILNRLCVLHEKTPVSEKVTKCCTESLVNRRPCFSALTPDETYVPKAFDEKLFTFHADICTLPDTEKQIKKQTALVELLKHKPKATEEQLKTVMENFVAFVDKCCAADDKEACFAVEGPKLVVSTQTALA
Description: Method 2: In Vitro Study to Evaluate Active-Protein Interaction
Bovine serum albumin (BSA) was used as the reference protein to generate the calibration curve. […] The BSA granular, the BSA solution standard and Bradford reagent were all obtained from Sigma-Aldrich (Catalog Number: A7906, PO834, B6916). The buffer solution was made by adding 875 mL of 0.1 Molar sodium hydroxide (SpecSol) to 125 mL 0.1 Molar potassium dihydrogen phosphate (Merck) and its pH was adjusted to BSA isoelectric point (pH 4.9).
1. Prepare buffer by adding 875 mL of 0.1 Molar sodium hydroxide to 125 mL of 0.1 Molar potassium dihydrogen phosphate, adjusted to pH 4.9. This is the buffer solution used to make the active sample solution, the dose-response curve and the protein solution.
2. To prepare an active sample solution for initial screening, add 5 g of the active material to 50 mL of the buffer solution.
3. To prepare the protein solution, add 4 g of albumin (available from Sigma-Aldrich) from bovine serum (BSA) to 2000 mL of buffer solution.
4. To prepare the reaction solution, add 10 mL of the sample solution (step 2) to 50 mL of the protein solution.
5. To prepare the analytical solution, after filtration through a 0.45 μm membrane, 0.01 mL of reaction solution (step 4) to 3 mL of the Bradford reagent. Measure and record the absorbance at 595 nm. Determine the protein concentration by comparison to the standard curve.

[3] = compound at 10% in sodium hydroxide solution pH 8.5
[4] = mean turbidity, compound at 10% in sodium hydroxide solution pH 8.5

Molecule: CC(O)C(=O)O.N (stereo not shown) [Ammonium lactate]
Physical Observation [1, 3]: Liquid
Turbidity pH 8.5 [1, 4]: 1.2 NTU

Molecule: N.N.O=S(=O)(O)O [Ammonium sulfate]
Physical Observation [1, 3]: Liquid
Turbidity pH 8.5 [1, 4]: 1.1 NTU

Molecule: CC(=O)[O-].CC(=O)[O-].[Ca+2] [Calcium acetate]
Precipitation (BSA) [2]: 5%
Physical Observation ([1]; pH 8.5): Liquid
Turbidity pH 8.5 ([1]; pH 8.5): 20.0 NTU

Molecule: CC(O)C(=O)[O-].CC(O)C(=O)[O-].[Ca+2] (stereo not shown) [Calcium lactate]
Physical Observation [1, 3]: Liquid
Turbidity pH 8.5 [1, 4]: 0.9 NTU

Molecule: [Mg+2].[O-][Cl+2]([O-])[O-].[O-][Cl+2]([O-])[O-] [Magnesium chlorate]
Precipitation (BSA) [2]: 4%
Physical Observation [1, 3]: Liquid
Turbidity pH 8.5 [1, 4]: 0.4 NTU

Molecule: O.O=S(=O)([O-])[O-].[Mg+2] [Magnesium sulfate 1•H2O]
Precipitation (BSA) [2]: 11%
Physical Observation [1, 3]: Liquid
Turbidity pH 8.5 [1, 4]: 0.9 NTU

Molecule: O.O.O.O.O.O=S(=O)([O-])[O-].[Mg+2] [Magnesium sulfate 5•H2O]
Precipitation (BSA) [2]: 10%
Physical Observation [1, 3]: Liquid
Turbidity pH 8.5 [1, 4]: 1.5 NTU

Molecule: O.O.O.O.O.O.O.O=S(=O)([O-])[O-].[Mg+2] [Magnesium sulfate 7•H2O]
Precipitation (BSA) [2]: 12%
Physical Observation [1, 3]: Liquid
Turbidity pH 8.5 [1, 4]: 1.5 NTU

Molecule: O=S(=O)([O-])[O-].[Mg+2] [Magnesium sulfate Andros]
Precipitation (BSA) [2]: 8%
Physical Observation [1, 3]: Liquid
Turbidity pH 8.5 [1, 4]: 0.5 NTU

Molecule: CC(=O)[O-].[Na+] [Sodium acetate]
Precipitation (BSA) [2]: 5%
Physical Observation ([1]; pH 8.5): Liquid
Turbidity pH 8.5 ([1]; pH 8.5): 0.9 NTU

Molecule: CC(O)C(=O)[O-].[Na+] (stereo not shown) [Sodium lactate]
Physical Observation [1, 3]: Liquid
Turbidity pH 8.5 [1, 4]: 0.5 NTU

Molecule: O=S(=O)([O-])[O-].[Na+].[Na+] [Sodium sulfate]
Physical Observation ([1]; pH 8.5): Liquid
Turbidity pH 8.5 ([1]; pH 8.5): 1.8 NTU

Molecule: CC(O)C(=O)[O-].CC(O)C(=O)[O-].[Zn+2] (stereo not shown) [Zinc Lactate (food), zinc lactate]
Physical Observation [1, 3]: Gel Polymerization
Turbidity pH 8.5 [1, 4]: 525.5 NTU
Potential to gel polymerize in an alkaline environment [1]: high potential to gel polymerize

Molecule: CC(O)C(=O)[O-].CC(O)C(=O)[O-].[Zn+2] (stereo not shown) [Zinc Lactate (pharma), zinc lactate]
Physical Observation [1, 3]: Gel Polymerization
Turbidity pH 8.5 [1, 4]: 538.0 NTU
Potential to gel polymerize in an alkaline environment [1]: high potential to gel polymerize

% BSA Precipitation ([2]; 1% solution): 5%
% BSA Precipitation ([2]; 5% solution): −1%
% BSA Precipitation ([2]; 10% solution): 21%
% BSA Precipitation ([2]; 15% solution): 31%
Precipitation (BSA) [2]: 18%
Molecule: O=S(=O)([O-])c1ccc(O)cc1.O=S(=O)([O-])c1ccc(O)cc1.[Zn+2] [Zinc Phenolsulfonate, zinc phenolsulfonate]
Potential to be clogging agents (protein precipitation) ([2]; summary of Tables 2 and 3): demonstrated potential to be clogging agents
Physical Observation [1, 3]: Liquid
Turbidity pH 8.5 [1, 4]: 1.8 NTU

% BSA Precipitation ([2]; 1% solution): 24%
% BSA Precipitation ([2]; 5% solution): 56%
% BSA Precipitation ([2]; 10% solution): 79%
% BSA Precipitation ([2]; 15% solution): 95%
Molecule: Aluminum chlorohydrate [reference compound]

Precipitation (BSA) [2]: 100%
Molecule: aluminum sesquichlorohydrate [Aluminium Sesquichlorohydrate, reference compound]
Physical Observation [1, 3]: Gel Polymerization
Turbidity pH 8.5 [1, 4]: 593.0 NTU
